Laboratory results as given in patent US10695406B2, “Modulation of cellular stress using a B-cell oxidative and/or endoplasmic reticulum stress inhibitor and a targeting agent” (THE UNIVERSITY OF QUEENSLAND, priority 2014, dated 2020).

System: human pancreatic islets
Experiment: Oxidative stress (ROS, NO) in cultured human pancreatic islets
Type: cell-based
Settings: 50 ng/mL, 30 min prior exposure, 2 hours culture
Description: Human islets were recovered from organ donors and placed into overnight culture in DMEM with 2.8 mM glucose and 10% FCS. Islets were then washed and transferred into serum free DMEM for 6 h prior to experiments to assess induction of oxidative stress. Islets were then cultured for 2-24 hours in the presence of 50 ng/mL of IFNγ, IL-1β, IL-23 or IL-24, or the free fatty acid palmitate at 0.5 mM, with or without exposure to 50 ng/mL IL-22 beginning 30 min prior to the introduction of the stress inducing cytokines or lipids. To test whether endogenous IL-22 affects human islet physiology the islets were treated for 2-24 hours with an anti-IL-22R1 (receptor) antibody at 10 μg/mL. ROS and nitrite were measured using the DCFDA and Greiss assays as described above for murine islets, and quantitative RT-PCR used to assess gene expression.

**Q.** “IL-22: interleukin-22; recombinant murine IL-22 (R&D SYSTEMS) in the mouse experiments” was tested. Which “production of ROS and NO induced by IFN-γ, IL-1β, IL-23, IL-24 and palmitate” value did it give?
**A.** The value was “protected human islets from the production of ROS and NO”.
